The values below are quoted from earlier work in patent EP1227812B1 (SCHERING CORPORATION, priority 1999, dated 2001).

SMILES strings stand for the structures.

The conditions of this data set: eight subjects tested, topical azatadine.

Consider `CN1CCC(=C2c3ccccc3CCc3cccnc32)CC1` [Azatadine, azatadine], for which the drowsiness result is “drowsiness in one of the eight subjects tested”.
